Here are results for 2 molecules from patent US20230337719A1, “ORAL PRODUCT” (Nicoventures Trading Limited, priority 2020, published 2023).

Data set [1] can be described thus: Modern Oral Intervention Trial: in-mouth glycoside degradation of spiked oral product, HPLC quantitation. It counts as in vivo, human. Here is the method:
Test Product - An oral product was prepared based on the commercial product sold by British American Tobacco as LYFT. The product included microcrystalline cellulose as a filler. […] The samples were then left at room temperature for one day to evaporate the ethanol.
Modern Oral Intervention Trial - Three healthy volunteers (female, 30-35 years of age) were asked to place the raspberry ketone spiked oral product under their upper lip, slightly to the side of the front teeth. After 30 sec, the product was moisturised by using the tip of the tongue. After 5 min, the product was disgorged into a centrifuge tube and any salivary enzymatic processes stopped by adding methanol (5 mL, p.A.) into the centrifuge tube. The procedure was repeated with intervention times of 0 (control sample), 10 and 20 min.
Sample Preparation - The centrifuge tubes containing the oral product and methanol (5 mL, p.A.) were vortexed for 10 sec and then placed on a plate shaker for 10 min to extract the remaining raspberry ketone glycoside. Afterwards, the tubes were centrifuged (13,200 rpm, 10 min) and the supernatant decanted into a safe lock tube (2 mL). The safe lock tube was centrifuged (13,200 rpm, 10 min) and an aliquot taken for analysis.
Quantitation of in-mouth glycoside degradation - Analysis was performed on a HPLC system (Knauer, Germany) equipped with a pump (AZURA P2.1S), auto-sampler (AZURA AS 6.1L) and diode-array UV/VIS detector (AZURA DAD 6.1L). Samples were loaded onto a reversed phase C18 column (Knauer, Eurospher II 100 C18, 3 mm × 100 mm) and separated with a 10 min gradient starting at 90% solvent mixture A (0.1% formic acid in water) in solvent mixture B (0.1% formic acid in methanol) at a flow rate of 0.5 mL/min changing to 30% A in 5 min and back to 90% A in 0.05 min holding for 4.5 min. The detection UV wavelength was set at 280 nm. Quantitation was performed by using an external calibration curve.
3 healthy volunteers were asked to place raspberry ketone spiked oral products under their upper lip according to a defined procedure and leave the pouch in their mouth for 5, 10 and 20 min. The remaining glycoside of the incubated samples as well as a control sample which was not incubated was extracted as described above and quantified by means of high pressure liquid chromatography and an external calibration curve.

A short description of data set [2]: glucosylation of furaneol by glycosyl transferase. It counts as biochemical, Vitis vinifera. An excerpt:
At some instances, the present application refers to a glycosyl transferase being “capable of catalyzing” a certain reaction. For example, the present application may state that a glycosyl transferase is capable of catalyzing transfer of a sugar group from a sugar donor to a certain acceptor. This is meant to designate that under appropriate reaction conditions the rate at which the reaction product (in the example the adduct of the sugar group and the acceptor) is formed is at least 10-fold higher in the presence of said glycosyl transferase than the rate at which the reaction product is formed in a control experiment in the absence of said glycosyl transferase.

Regarding “4-[4′-Hydroxy phenyl]-butan-2-one-4′-O-β-D-glucopyranoside [raspberry ketone glycoside]”, the “amount of raspberry ketone remaining in product” value was 0.2 mg/mL in data set [1] (0 min (control sample, not incubated), tester P-01, product spiked with 1200 ppm raspberry ketone glycoside); 0.2 mg/mL in data set [1] (0 min (control sample, not incubated), tester P-02, product spiked with 1200 ppm raspberry ketone glycoside); 0.2 mg/mL in data set [1] (0 min (control sample, not incubated), tester P-03, product spiked with 1200 ppm raspberry ketone glycoside); 0.15 mg/mL in data set [1] (5 min in mouth, tester P-01); 0.13 mg/mL in data set [1] (5 min in mouth, tester P-02); 0.16 mg/mL in data set [1] (5 min in mouth, tester P-03). In addition, the “amount of raspberry ketone remaining in product” value in data set [1] (10 min in mouth, tester P-01) worked out at 0.12 mg/mL; in data set [1] (10 min in mouth, tester P-02) it was 0.10 mg/mL; in data set [1] (10 min in mouth, tester P-03), 0.16 mg/mL; in data set [1] (20 min in mouth, tester P-01), 0.06 mg/mL; in data set [1] (20 min in mouth, tester P-02), 0.06 mg/mL; in data set [1] (20 min in mouth, tester P-03) it was 0.13 mg/mL. Also, the “percentage release of raspberry ketone from glycoside” value in data set [1] (0 min, tester P-01) is given as 0%; in data set [1] (0 min, tester P-02) it was 0%; in data set [1] (0 min, tester P-03), 0%; in data set [1] (5 min in mouth, tester P-01) it was 25%; in data set [1] (5 min in mouth, tester P-02), 35%; in data set [1] (5 min in mouth, tester P-03), 20%. The “percentage release of raspberry ketone from glycoside” value in data set [1] (10 min in mouth, tester P-01) is 40%; in data set [1] (10 min in mouth, tester P-02), 50%; in data set [1] (10 min in mouth, tester P-03) it was 20%; in data set [1] (20 min in mouth, tester P-01), 70%; in data set [1] (20 min in mouth, tester P-02), 70%; in data set [1] (20 min in mouth, tester P-03) it was 35%. The glycoside enzymatically cleaved in data set [1] (after 20 min in mouth incubation, across all panellists) is listed as 35 - 70%.

B1: WGT14: terpene glycosyl transferase VvGT14 from Vitis vinifera (SEQ ID NO: 1) (protein, listed as Vitis vinifera)
chain: MGSMEKPHAVCIPYPAQGHINPMLKVAKLLHFRGFRITFVNTEFNHTRLLKAQGPNSLNGLPTFQFETIPDGLPPSNVDATQDIPSLCASTKKNCLAPFRRLLAKLNDRGPPVTCIFSDAVMSFTLDAAQELGIPDLLLWTASACGFMAYVQYRSLIDKGFTPLKDESYLTNGYLDTVVDWIPGMKGIRLKDLPSFIRTTDPDDIMLDFAMGELERARKASAIIFNTFDALEQEVLDAIAPMYPPIYTIGPLQLLPDQIHDSELKLIGSNLWKEEPECLKWLDSKEPNSVVYVNYGSITVMTPQQLIEFAWGLANSNQSFLWILRPDLVSGESAILPPEFVAETEDRGLLAGWCPQEQVLTHQAIGGFLTHNGWNSTIEGLCAGVPMICWPFFAEQQTNCRYCCTEWGVGMEIDSDVKRDEVAKLVRELMVGEKGKVMKKKTMEWKHRAEVATTGPDGSSYLNLEKIFEQVLL
With B1, the “capability of catalyzing glucosylation of furaneol” value in data set [2] is on record as “capable of catalyzing glucosylation of furaneol”.
